Measurements as given in patent publication US12441725B2, “ISO-citrate dehydrogenase (IDH) inhibitor” (ZHEJIANG METON PHARMACEUTICAL CO., LTD, priority 2019, dated 2025).

Experiments:
[1] = biological target: T1, IDH1 R132H (Homo sapiens, UniProt O75874, R132H); assay: Biochemical assay for IDH inhibition (NADPH fluorescence), mutant IDH1 R132H; settings: 50 nM IDH1-R132H, 1 hour pre-incubation, in triplet
T1 construct: 6xHis
Procedure, shortened: (§1)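 Mutant enzyme (25 nM R132C or 50 nM R132H) was preincubated 1 h at room temperature with compound in pH 7.5 Tris buffer containing 1.33 mM α-KG, and the reaction was then started with NADPH (80 μM solution). NADPH consumption was followed by fluorescence (Ex 340/Em 460 nm) for 15 min. IC50 was derived from background-corrected linear rates relative to vehicle, run in triplicate.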

[2] = biological target: T2, IDH1 R132C (Homo sapiens, UniProt O75874, R132C); assay: Biochemical assay for IDH inhibition (NADPH fluorescence), mutant IDH1 R132C; settings: 25 nM IDH1-R132C, 1 hour pre-incubation, in triplet
T2 construct: 6xHis
T2 sequence (O75874 whole entry R132C): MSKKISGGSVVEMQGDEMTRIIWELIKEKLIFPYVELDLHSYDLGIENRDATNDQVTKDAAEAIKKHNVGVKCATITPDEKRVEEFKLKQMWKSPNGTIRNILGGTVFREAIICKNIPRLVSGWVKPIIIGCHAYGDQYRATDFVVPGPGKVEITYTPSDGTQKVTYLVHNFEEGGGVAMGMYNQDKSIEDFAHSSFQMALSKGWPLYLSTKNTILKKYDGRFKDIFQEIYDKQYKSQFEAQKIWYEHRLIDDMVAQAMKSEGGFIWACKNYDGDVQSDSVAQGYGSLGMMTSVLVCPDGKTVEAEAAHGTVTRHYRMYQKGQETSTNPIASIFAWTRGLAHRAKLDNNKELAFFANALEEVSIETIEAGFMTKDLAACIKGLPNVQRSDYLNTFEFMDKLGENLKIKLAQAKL
Procedure, shortened: as §1

[3] = biological target: T3, IDH (endogenous IDH1 R132C) in HT1080 cell (Homo sapiens, UniProt O75874, R132C); assay: Cell-based assay for IDH inhibition (decrease of D-2-HG) in HT1080 cells; settings: human fibrosarcoma cell line HT1080, 16 hours treatment, D-2-HG by LC-MS, in triplet
T3 construct: which harbor endogenous heterozygous IDH1 R132C and R132H mutation respectively and accumulate D-2-HG
T3 sequence (O75874 2-414 R132C): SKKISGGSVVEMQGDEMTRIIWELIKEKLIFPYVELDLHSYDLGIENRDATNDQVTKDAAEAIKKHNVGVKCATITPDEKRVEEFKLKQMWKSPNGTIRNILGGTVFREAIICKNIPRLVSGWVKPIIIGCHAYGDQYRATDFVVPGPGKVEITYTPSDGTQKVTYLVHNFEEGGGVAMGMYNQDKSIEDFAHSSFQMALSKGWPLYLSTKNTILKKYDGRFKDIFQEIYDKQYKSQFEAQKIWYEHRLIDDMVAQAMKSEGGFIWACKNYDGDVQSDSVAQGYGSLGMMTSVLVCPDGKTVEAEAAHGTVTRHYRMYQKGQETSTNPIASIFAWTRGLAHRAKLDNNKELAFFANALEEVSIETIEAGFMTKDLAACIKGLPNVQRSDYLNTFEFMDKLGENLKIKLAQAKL
Procedure, shortened: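 HT1080 cells with endogenous IDH1 R132C, grown in DMEM/10% FBS, treated with compound at several concentrations for 16 h. Metabolites extracted in cold 40% methanol/40% acetonitrile and D-2-HG measured by HILIC LC-MS/MS, normalized to glutamate. IC50 from D-2-HG relative to DMSO controls; run in triplicate.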

T1 sequence (O75874 whole entry R132H): as the sequence (O75874 whole entry R132C) above, with C132H counted along it

SMILES | IC50 [1] | IC50 [2] | IC50 [3]
CCN1Cc2c(ccnc2N[C@@H](C)c2ncc(-c3cccc(C)c3F)cn2)C1=O [Compound 49, (S)-2-ethyl-4-((1-(5-(2-fluoro-3-methylphenyl)pyrimidin-2-yl)ethyl)amino)-2,3-dihydro-1H-pyrrolo[3,4-c]pyridin-1-one] | > 1000 nM | > 1000 nM | > 1000 nM
CCN1Cc2c(ccnc2N[C@@H](C)c2ccc(N(C)c3ccccc3)c(F)c2)C1=O [Compound 31, (S)-2-ethyl-4-((1-(3-fluoro-4-(methyl(phenyl)amino)phenyl)ethyl)amino)-2,3-dihydro-1H-pyrrolo[3,4-c]pyridin-1-one] | > 1000 nM | > 1000 nM | > 1000 nM
CCN1Cc2c(ccnc2N[C@@H](C)c2ccc(OC3CCC(F)(F)C3)c(F)c2)C1=O (stereo partly drawn) [Compound 27, 4-(((1S)-1-(4-((3,3-difluorocyclopentyl)oxy)-3-fluorophenyl)ethyl)amino)-2-ethyl-2,3-dihydro-1H-pyrrolo[3,4-c]pyridin-1-one] | > 1000 nM | > 1000 nM | > 1000 nM
CCN1Cc2c(ccnc2N[C@@H](C)c2cc3cc(Cl)ccc3[nH]c2=O)C1=O [Compound 64, (S)-6-chloro-3-(1-((2-ethyl-1-oxo-2,3-dihydro-1H-pyrrolo[3,4-c]pyridin-4-yl)amino)ethyl)quinolin-2(1H)-one] | 100 to 500 nM | > 1000 nM | > 1000 nM
CCN1Cc2c(ccnc2N[C@@H](C)c2cnc(-c3cc(C(C)(C)C)ccn3)c(F)c2)C1=O [Compound 44, (S)-4-((1-(4′-(tert-butyl)-3-fluoro-[2,2′-bipyridin]-5-yl)ethyl)amino)-2-ethyl-2,3-dihydro-1H-pyrrolo[3,4-c]pyridin-1-one] | > 1000 nM | > 1000 nM | 500 to 1000 nM
CCN1Cc2c(ccnc2N[C@@H](C)c2ccc(OC3CCc4ccccc43)c(F)c2)C1=O (stereo partly drawn) [Compound 6, 4-(((1S)-1-(4-((2,3-dihydro-1H-inden-1-yl)oxy)-3-fluorophenyl)ethyl)amino)-2-ethyl-2,3-dihydro-1H-pyrrolo[3,4-c]pyridin-1-one] | 500 to 1000 nM | > 1000 nM | > 1000 nM
CCN1Cc2c(ccnc2N[C@@H](C)c2cc(F)c(-c3cc(C#N)ccn3)cc2F)C1=O [Compound 114, (S)-2-(4-(1-((2-ethyl-1-oxo-2,3-dihydro-1H-pyrrolo[3,4-c]pyridin-4-yl)amino)ethyl)-2,5-difluorophenyl)isonicotinonitrile] | > 1000 nM | > 1000 nM | 500 to 1000 nM
CCN1Cc2c(ccnc2N[C@@H](C)c2ccc(-c3ccc(F)c(C)c3)c(F)c2)C1=O [Compound 81, (S)-4-((1-(2,4′-difluoro-3′-methyl-[1,1′-biphenyl]-4-yl)ethyl)amino)-2-ethyl-2,3-dihydro-1H-pyrrolo[3,4-c]pyridin-1-one] | 100 to 500 nM | 500 to 1000 nM | > 1000 nM
CCN1Cc2c(ccnc2N[C@@H](C)c2cc(F)c(-c3ccnc(-c4ccccc4)c3)cc2F)C1=O [Compound 98, (S)-4-((1-(2,5-difluoro-4-(2-phenylpyridin-4-yl)phenyl)ethyl)amino)-2-ethyl-2,3-dihydro-1H-pyrrolo[3,4-c]pyridin-1-one] | 500 to 1000 nM | > 1000 nM | 100 to 500 nM
CCN1Cc2c(ccnc2N[C@@H](C)c2cc(F)c(-c3ccnc(C4CC(F)(F)C4)c3)cc2F)C1=O [Compound 97, (S)-4-((1-(4-(2-(3,3-difluorocyclobutyl)pyridin-4-yl)-2,5-difluorophenyl)ethyl)amino)-2-ethyl-2,3-dihydro-1H-pyrrolo[3,4-c]pyridin-1-one] | 100 to 500 nM | 500 to 1000 nM | 100 to 500 nM
CCN1Cc2c(ccnc2N[C@@H](C)c2ccc(OC3Cc4ccccc4C3)c(F)c2)C1=O [Compound 5, (S)-4-((1-(4-((2,3-dihydro-1H-inden-2-yl)oxy)-3-fluorophenyl)ethyl)amino)-2-ethyl-2,3-dihydro-1H-pyrrolo[3,4-c]pyridin-1-one] | 500 to 1000 nM | 500 to 1000 nM | > 1000 nM
CCN1Cc2c(N[C@@H](C)c3ccc(-c4ccnc(C(C)(C)C)c4)c(F)c3)ncnc2C1=O [Compound 66, (S)-4-((1-(4-(2-(tert-butyl)pyridin-4-yl)-3-fluorophenyl)ethyl)amino)-6-ethyl-5H-pyrrolo[3,4-d]pyrimidin-7(6H)-one] | 100 to 500 nM | > 1000 nM | 500 to 1000 nM
CCN1Cc2c(ccnc2N[C@@H](C)c2cc(F)c(-c3cc(C(F)(F)F)ncc3O)cc2F)C1=O [Compound 144, (S)-4-((1-(2,5-difluoro-4-(5-hydroxy-2-(trifluoromethyl)pyridin-4-yl)phenyl)ethyl)amino)-2-ethyl-2,3-dihydro-1H-pyrrolo[3,4-c]pyridin-1-one] | > 1000 nM | > 1000 nM | > 1000 nM
CCN1Cc2c(ccnc2N[C@@H](C)c2ccc(-c3ccnc(C(C)(C)C)c3)c(F)c2)C1=O [Compound 71, (S)-4-((1-(4-(2-(tert-butyl)pyridin-4-yl)-3-fluorophenyl)ethyl)amino)-2-ethyl-2,3-dihydro-1H-pyrrolo[3,4-c]pyridin-1-one] | < 100 nM | < 100 nM | 100 to 500 nM
CCN1Cc2c(ccnc2N[C@@H](C)c2ncc(-c3ccc(OC)cc3)cn2)C1=O [Compound 50, (S)-2-ethyl-4-((1-(5-(4-methoxyphenyl)pyrimidin-2-yl)ethyl)amino)-2,3-dihydro-1H-pyrrolo[3,4-c]pyridin-1-one] | > 1000 nM | > 1000 nM | > 1000 nM

The next lines start with the values.

IC50 [1] | IC50 [2] | IC50 [3] | SMILES
< 100 nM | 100 to 500 nM | 100 to 500 nM | CCN1Cc2c(ccnc2N[C@@H](C)c2cc(F)c(-c3ccc(OC)c(C(C)(C)C)n3)cc2F)C1=O [Compound 149, (S)-4-((1-(4-(6-(tert-butyl)-5-methoxypyridin-2-yl)-2,5-difluorophenyl)ethyl)amino)-2-ethyl-2,3-dihydro-1H-pyrrolo[3,4-c]pyridin-1-one]
< 100 nM | 100 to 500 nM | 100 to 500 nM | CCN1Cc2c(ccnc2N[C@@H](C)c2cc(F)c(-c3cc(C(F)(F)F)cc(F)n3)cc2F)C1=O [Compound 155, (S)-4-((1-(2,5-difluoro-4-(6-fluoro-4-(trifluoromethyl)pyridin-2-yl)phenyl)ethyl)amino)-2-ethyl-2,3-dihydro-1H-pyrrolo[3,4-c]pyridin-1-one]
< 100 nM | < 100 nM | < 100 nM | CCN1Cc2c(ccnc2N[C@@H](C)c2cc(F)c(-c3cc(C(C)(C)F)cc(F)n3)cc2F)C1=O [Compound 119, (S)-4-((1-(2,5-difluoro-4-(6-fluoro-4-(2-fluoropropan-2-yl)pyridin-2-yl)phenyl)ethyl)amino)-2-ethyl-2,3-dihydro-1H-pyrrolo[3,4-c]pyridin-1-one]
< 100 nM | < 100 nM | 100 to 500 nM | CCN1Cc2c(ccnc2N[C@@H](C)c2cc(F)c(-c3cc(C(F)(F)F)cc(CF)n3)cc2F)C1=O [Compound 123, (S)-4-((1-(2,5-difluoro-4-(6-(fluoromethyl)-4-(trifluoromethyl)pyridin-2-yl)phenyl)ethyl)amino)-2-ethyl-2,3-dihydro-1H-pyrrolo[3,4-c]pyridin-1-one]
< 100 nM | < 100 nM | 100 to 500 nM | CCN1Cc2c(ccnc2N[C@@H](C)c2cc(F)c(-c3ccnc(C(F)(F)C(F)(F)F)c3)cc2F)C1=O [Compound 107, (S)-4-((1-(2,5-difluoro-4-(2-(perfluoroethyl)pyridin-4-yl)phenyl)ethyl)amino)-2-ethyl-2,3-dihydro-1H-pyrrolo[3,4-c]pyridin-1-one]
< 100 nM | < 100 nM | < 100 nM | CCN1Cc2c(ccnc2N[C@@H](C)c2cc(F)c(-c3cc(C(C)(C)C)ncn3)cc2F)C1=O [Compound 110, (S)-4-((1-(4-(6-(tert-butyl)pyrimidin-4-yl)-2,5-difluorophenyl)ethyl)amino)-2-ethyl-2,3-dihydro-1H-pyrrolo[3,4-c]pyridin-1-one]
< 100 nM | < 100 nM | < 100 nM | CCN1Cc2c(ccnc2N[C@@H](C)c2cc(F)c(-c3nc(C)cc(C(C)(C)F)c3F)cc2F)C1=O [Compound 134, (S)-4-((1-(2,5-difluoro-4-(3-fluoro-4-(2-fluoropropan-2-yl)-6-methylpyridin-2-yl)phenyl)ethyl)amino)-2-ethyl-2,3-dihydro-1H-pyrrolo[3,4-c]pyridin-1-one]
< 100 nM | < 100 nM | < 100 nM | CCN1Cc2c(ccnc2N[C@@H](C)c2cc(F)c(-c3cc(C(C)(C)F)c(OC)nn3)cc2F)C1=O [Compound 153, (S)-4-((1-(2,5-difluoro-4-(5-(2-fluoropropan-2-yl)-6-methoxypyridazin-3-yl)phenyl)ethyl)amino)-2-ethyl-2,3-dihydro-1H-pyrrolo[3,4-c]pyridin-1-one]
< 100 nM | < 100 nM | < 100 nM | CCN1Cc2c(ccnc2N[C@@H](C)c2cc(F)c(O[C@H]3C[C@@H](C)CC(C)(C)C3)cc2F)C1=O [Compound 24, 4-(((S)-1-(2,5-difluoro-4-(((1S,5S)-3,3,5-trimethylcyclohexyl)oxy)phenyl)ethyl)amino)-2-ethyl-2,3-dihydro-1H-pyrrolo[3,4-c]pyridin-1-one]
